{
  "source": "patent US20240343733A1",
  "about": "“COMPOUNDS FOR TARGETING DEGRADATION OF IRAK4 PROTEINS” (BIOGEN MA INC., priority 2021, published 2024)",
  "data": [
    {"target": "T1, IRAK4 (Homo sapiens, UniProt Q9NWZ3)", "T1 construct": "293Tcells expressing HiBiT-tagged IRAK4 were then added into 384-well plates", "T1 sequence (Q9NWZ3 1-460)": "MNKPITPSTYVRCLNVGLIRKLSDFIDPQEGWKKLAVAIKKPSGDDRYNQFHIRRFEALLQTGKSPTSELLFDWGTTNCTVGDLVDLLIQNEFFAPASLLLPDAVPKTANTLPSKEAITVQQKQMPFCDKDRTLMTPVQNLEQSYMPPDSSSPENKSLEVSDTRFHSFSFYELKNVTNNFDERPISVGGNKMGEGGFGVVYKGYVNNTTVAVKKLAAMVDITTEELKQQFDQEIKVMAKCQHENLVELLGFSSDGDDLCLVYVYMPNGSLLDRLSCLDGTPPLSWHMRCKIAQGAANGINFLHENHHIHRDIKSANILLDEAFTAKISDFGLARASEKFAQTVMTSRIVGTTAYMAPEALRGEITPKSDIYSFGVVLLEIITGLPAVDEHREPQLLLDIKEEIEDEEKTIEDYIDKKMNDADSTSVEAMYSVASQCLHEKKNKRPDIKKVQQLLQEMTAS", "test": "IRAK4 Degradation Assay, HiBiT Method", "type": "cell-based", "settings": "293T cells expressing HiBiT-tagged IRAK4, 6 hours", "in_short": "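293T cells with HiBiT knocked in at the C-terminus of endogenous IRAK4, 10,000 per well, treated 6 h at 37 °C with an 11-point half-log series ([…]), in duplicate. Remaining IRAK4 read by Nano-Glo HiBiT lytic luminescence against DMSO-only and media-only controls.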", "units": {"DC50": "nM"}, "values": [
      {"smiles": "CC(C)Oc1cc2nn(C3CCN(C(=O)CC4(O)CCN(c5cc(F)c(NC6CCC(=O)NC6=O)cc5F)CC4)CC3)cc2cc1C(=O)Nc1cccc(C(F)F)n1", "note": "(stereo not shown) [Example 66, N-(6-(difluoromethyl)pyridin-2-yl)-2-(1-(2-(1-(4-((2,6-dioxopiperidin-3-yl)amino)-2,5-difluorophenyl)-4-hydroxypiperidin-4-yl)acetyl)piperidin-4-yl)-6-isopropoxy-2H-indazole-5-carboxamide]", "DC50": "10 to 100"},
      {"smiles": "CC(C)Oc1cc2nn(C3CCN(C(=O)CC4(O)CCN(c5cc(F)c(C6CCC(=O)NC6=O)cc5F)CC4)CC3)cc2cc1C(=O)Nc1cccc(C(F)F)n1", "note": "(stereo not shown) [Example 67, N-(6-(difluoromethyl)pyridin-2-yl)-2-(1-(2-(1-(4-(2,6-dioxopiperidin-3-yl)-2,5-difluorophenyl)-4-hydroxypiperidin-4-yl)acetyl)piperidin-4-yl)-6-isopropoxy-2H-indazole-5-carboxamide]", "DC50": "< 10"},
      {"smiles": "CC(C)Oc1cc2nc(C3CCN(C(=O)CC4(O)CCN(c5ccc(NC6CCC(=O)NC6=O)cc5)CC4)CC3)cn2cc1C(=O)Nc1cccc(C(F)(F)F)n1", "note": "(stereo not shown) [Example 72, 2-[1-[2-[1-[4-[(2,6-dioxo-3-piperidyl)amino]phenyl]-4-hydroxy-4-piperidyl]acetyl]-4-piperidyl]-7-isopropoxy-N-[6-(trifluoromethyl)-2-pyridyl]imidazo[1,2-a]pyridine-6-carboxamide]", "DC50": "10 to 100"},
      {"smiles": "CC(C)Oc1cc2nc(C3CCN(C(=O)CC4(O)CCN(c5cc(F)c(NC6CCC(=O)NC6=O)cc5F)CC4)CC3)cn2cc1C(=O)Nc1cccc(C(F)(F)F)n1", "note": "(stereo not shown) [Example 74, 2-[1-[2-[1-[4-[(2,6-dioxo-3-piperidyl)amino]-2,5-difluoro-phenyl]-4-hydroxy-4-piperidyl]acetyl]-4-piperidyl]-7-isopropoxy-N-[6-(trifluoromethyl)-2-pyridyl]imidazo[1,2-a]pyridine-6-carboxamide]", "DC50": "10 to 100"},
      {"smiles": "CC(C)Oc1cc2nc(C3CCN(C(=O)CC4(O)CCN(c5cc(Cl)c(NC6CCC(=O)NC6=O)cc5Cl)CC4)CC3)cn2cc1C(=O)Nc1cccc(C(F)F)n1", "note": "(stereo not shown) [Example 75, 2-[1-[2-[1-[2,5-dichloro-4-[(2,6-dioxo-3-piperidyl)amino]phenyl]-4-hydroxy-4-piperidyl]acetyl]-4-piperidyl]-N-[6-(difluoromethyl)-2-pyridyl]-7-isopropoxy-imidazo[1,2-a]pyridine-6-carboxamide]", "DC50": "10 to 100"},
      {"smiles": "CC(C)Oc1cc2nc(C3CCN(C(=O)CN4CCC(c5cc(F)c(C6CCC(=O)NC6=O)cc5F)CC4)CC3)cn2cc1C(=O)Nc1cccc(C(F)F)n1", "note": "(stereo not shown) [Example 76, N-[6-(difluoromethyl)-2-pyridyl]-2-[1-[2-[4-[4-(2,6-dioxo-3-piperidyl)-2,5-difluoro-phenyl]-1-piperidyl]acetyl]-4-piperidyl]-7-isopropoxy-imidazo[1,2-a]pyridine-6-carboxamide]", "DC50": "10 to 100"},
      {"smiles": "CC(C)Oc1cc2nc(C3CCN(C(=O)CN4CCC(c5cc(F)c(C6CCC(=O)NC6=O)cc5F)CC4)CC3)cn2cc1C(=O)Nc1cnn2cccnc12", "note": "(stereo not shown) [Example 77, 2-[1-[2-[4-[4-(2,6-dioxo-3-piperidyl)-2,5-difluoro-phenyl]-1-piperidyl]acetyl]-4-piperidyl]-7-isopropoxy-N-pyrazolo[1,5-a]pyrimidin-3-yl-imidazo[1,2-a]pyridine-6-carboxamide]", "DC50": "10 to 100"},
      {"smiles": "CC(C)Oc1cc2nc(C3CCN(C(=O)CN4CCC(c5ccc6c(C7CCC(=O)NC7=O)nn(C)c6c5)C(F)(F)C4)CC3)cn2cc1C(=O)Nc1cccc(C(F)F)n1", "note": "(stereo not shown) [Example 78, N-[6-(difluoromethyl)-2-pyridyl]-2-[1-[2-[4-[3-(2,6-dioxo-3-piperidyl)-1-methyl-indazol-6-yl]-3,3-difluoro-1-piperidyl]acetyl]-4-piperidyl]-7-isopropoxy-imidazo[1,2-a]pyridine-6-carboxamide]", "DC50": "10 to 100"},
      {"smiles": "CC(C)Oc1cc2nc(C3CCN(C(=O)CC4(O)CCN(c5ccc6c(C7CCC(=O)NC7=O)nn(C)c6c5)CC4)CC3)cn2cc1C(=O)Nc1cccc(C(F)F)n1", "note": "(stereo not shown) [Example 79, N-[6-(difluoromethyl)-2-pyridyl]-2-[1-[2-[1-[3-(2,6-dioxo-3-piperidyl)-1-methyl-indazol-6-yl]-4-hydroxy-4-piperidyl]acetyl]-4-piperidyl]-7-isopropoxy-imidazo[1,2-a]pyridine-6-carboxamide]", "DC50": "10 to 100"},
      {"smiles": "CC(C)Oc1cc2nc(C3CCN(C(=O)CN4CCC(c5ccc(C6CCC(=O)NC6=O)cc5F)CC4)CC3)cn2cc1C(=O)Nc1cccc(C(F)F)n1", "note": "(stereo not shown) [Example 80, N-[6-(difluoromethyl)-2-pyridyl]-2-[1-[2-[4-[4-(2,6-dioxo-3-piperidyl)-2-fluoro-phenyl]-1-piperidyl]acetyl]-4-piperidyl]-7-isopropoxy-imidazo[1,2-a]pyridine-6-carboxamide]", "DC50": "10 to 100"},
      {"smiles": "CC(C)Oc1cc2nc(C3CCN(C(=O)CC4(O)CCN(c5c(F)cc(N[C@H]6CCC(=O)NC6=O)cc5Cl)CC4)CC3)cn2cc1C(=O)Nc1cccc(C(F)F)n1", "note": "[Example 82, 2-[1-[2-[1-[2-chloro-4-[[(3S)-2,6-dioxo-3-piperidyl]amino]-6-fluoro-phenyl]-4-hydroxy-4-piperidyl]acetyl]-4-piperidyl]-N-[6-(difluoromethyl)-2-pyridyl]-7-isopropoxy-imidazo[1,2-a]pyridine-6-carboxamide]", "DC50": "10 to 100"},
      {"smiles": "CC(C)Oc1cc2nc(C3CCN(C(=O)CN4CCC(n5ccc(NC6CCC(=O)NC6=O)n5)CC4)CC3)cn2cc1C(=O)Nc1cccc(C(F)F)n1", "note": "(stereo not shown) [Example 83, N-[6-(difluoromethyl)-2-pyridyl]-2-[1-[2-[4-[3-[(2,6-dioxo-3-piperidyl)amino]pyrazol-1-yl]-1-piperidyl]acetyl]-4-piperidyl]-7-isopropoxy-imidazo[1,2-a]pyridine-6-carboxamide]", "DC50": "10 to 100"},
      {"smiles": "CC(C)Oc1cc2nc(C3CCN(C(=O)CN4CCC(c5ccc(NC6CCC(=O)NC6=O)cn5)CC4)CC3)cn2cc1C(=O)Nc1cccc(C(F)F)n1", "note": "(stereo not shown) [Example 84, N-[6-(difluoromethyl)-2-pyridyl]-2-[1-[2-[4-[5-[(2,6-dioxo-3-piperidyl)amino]-2-pyridyl]-1-piperidyl]acetyl]-4-piperidyl]-7-isopropoxy-imidazo[1,2-a]pyridine-6-carboxamide]", "DC50": "10 to 100"},
      {"smiles": "CC(C)Oc1cc2nc(C3CCN(C(=O)CN4CCC(c5cnc(NC6CCC(=O)NC6=O)nc5)CC4)CC3)cn2cc1C(=O)Nc1cccc(C(F)F)n1", "note": "(stereo not shown) [Example 85, N-[6-(difluoromethyl)-2-pyridyl]-2-[1-[2-[4-[2-[(2,6-dioxo-3-piperidyl)amino]pyrimidin-5-yl]-1-piperidyl]acetyl]-4-piperidyl]-7-isopropoxy-imidazo[1,2-a]pyridine-6-carboxamide]", "DC50": "10 to 100"},
      {"smiles": "CC(C)Oc1cc2nc(C3CCN(C(=O)CN4CCC(c5ccc(NC6CCC(=O)NC6=O)nc5)CC4)CC3)cn2cc1C(=O)Nc1cccc(C(F)F)n1", "note": "(stereo not shown) [Example 86, N-[6-(difluoromethyl)-2-pyridyl]-2-[1-[2-[4-[6-[(2,6-dioxo-3-piperidyl)amino]-3-pyridyl]-1-piperidyl]acetyl]-4-piperidyl]-7-isopropoxy-imidazo[1,2-a]pyridine-6-carboxamide]", "DC50": "10 to 100"},
      {"smiles": "CC(C)Oc1cc2nc(C3CCN(C(=O)CN4CCC(c5ccc(C6(F)CCC(=O)NC6=O)cc5)CC4)CC3)cn2cc1C(=O)Nc1cccc(C(F)F)n1", "note": "(stereo not shown) [Example 88, N-[6-(difluoromethyl)-2-pyridyl]-2-[1-[2-[4-[4-(3-fluoro-2,6-dioxo-3-piperidyl)phenyl]-1-piperidyl]acetyl]-4-piperidyl]-7-isopropoxy-imidazo[1,2-a]pyridine-6-carboxamide]", "DC50": "10 to 100"}
    ]}
  ]
}
